Literature values, collected in patent publication US10568966B2, “Formulation for topical wound treatment” (AHMET KILIC, priority 2014, dated 2020).

What was measured:
[1] = CLP-Regulation (EC) No 1272/2008

| Molecule | LD50 Acute oral (Rat) | GHS Classification [1] |
| --- | --- | --- |
| Lauramidopropyl betaine [CRODATERIC ™ CAB 30-LQ-(TH)] | >4.900 mg/kg |  |
| C=CCCCCCCCCC(=O)NCCC[N+](C)(C)CC(=O)[O-] [Rewoteric ® AM B U 185, Undecylenamidopropyl Betaine] | >2.000 mg/kg |  |
| Cocamidopropyl Betaine [CRODATERIC ™ CAB 30-LQ-(RB)] |  | Eye Irrit. 2; H319 |
